# Assay results as given in US9272990B2, “Lysophosphatidic acid receptor antagonists and their use in the treatment fibrosis” (AMIRA PHARMACEUTICALS, INC., priority 2010, dated 2016).
# Key:
# [1] = system: nerve-injured mice; details: pretreatment; cited from earlier work
# [2] = system: human foetal lung fibroblasts; details: cited from earlier work
# [3] = system: UUO mice; details: compared with LPA1 (−/−) mice; cited from earlier work
# [4] = system: mouse epithelial renal cell line, MCT; details: co-treatment with LPA, MCT cells; cited from earlier work
# [5] = system: pancreatic cancer cell lines; details: cited from earlier work
# [6] = system: highly peritoneal metastatic pancreatic cancer cell line; details: cited from earlier work
# [7] = system: bone metastasis; details: in vivo; cited from earlier work
# [8] = biological target: T1, LPA3 receptor (Mus musculus, UniProt Q9EQ31); details: in the presence of the agonist; cited from earlier work
# T1 construct: host or cells: mouse kidney in vivo
# T1 sequence (Q9EQ31 1-354): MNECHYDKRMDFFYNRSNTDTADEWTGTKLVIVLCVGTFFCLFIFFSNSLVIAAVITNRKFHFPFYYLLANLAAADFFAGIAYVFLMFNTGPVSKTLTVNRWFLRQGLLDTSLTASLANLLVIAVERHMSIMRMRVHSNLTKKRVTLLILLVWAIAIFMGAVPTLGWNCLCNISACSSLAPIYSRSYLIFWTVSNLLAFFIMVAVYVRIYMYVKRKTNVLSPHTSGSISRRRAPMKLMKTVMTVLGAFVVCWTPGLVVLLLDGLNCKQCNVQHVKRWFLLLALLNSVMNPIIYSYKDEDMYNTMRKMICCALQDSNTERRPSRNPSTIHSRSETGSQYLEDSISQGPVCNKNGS
# [9] = biological target: T2, Human LPA1 (Homo sapiens, UniProt Q92633); assay: LPA1 calcium flux assay; assay type: cell-based; details: CHO cells expressing human LPA1, stimulated with 10 nM LPA; read-out: LPA1 Ca^2+ flux
# T2 construct: the full-length cDNA for human LPA1 was obtained by PCR of the reverse transcription reaction; expressed in transfected cells
# T2 sequence (Q92633 whole entry): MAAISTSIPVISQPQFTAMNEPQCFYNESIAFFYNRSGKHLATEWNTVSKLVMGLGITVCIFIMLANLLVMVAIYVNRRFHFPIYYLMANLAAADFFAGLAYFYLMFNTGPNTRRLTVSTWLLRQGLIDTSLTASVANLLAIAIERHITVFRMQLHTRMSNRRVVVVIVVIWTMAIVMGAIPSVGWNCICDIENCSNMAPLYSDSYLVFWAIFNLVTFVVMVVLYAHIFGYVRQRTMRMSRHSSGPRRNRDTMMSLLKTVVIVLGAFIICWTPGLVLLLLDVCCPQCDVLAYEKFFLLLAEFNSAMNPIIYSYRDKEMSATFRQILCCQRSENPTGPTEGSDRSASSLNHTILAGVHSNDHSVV
# Experimental: A 1.1 kb cDNA encoding the human LPA1 receptor was cloned from human lung. Human lung RNA (Clontech Laboratories, Inc. USA) was reverse transcribed using the RETROSCRIPT® kit (Ambion, Inc.) and the full-length cDNA for human LPA1 was obtained by PCR of the reverse transcription reaction. The nucleotide sequence of the cloned human LPA1 was determined by sequencing and confirmed to be identical to the published human LPA1 sequence (An et al., Biochem. Biophys. Res. Commun. 231:619 (1997). The cDNA was cloned into the pcDNA5/FRT expression plasmid and transfected in CHO cells using Lipofectamine 2000 (Invitrogen Corp., USA). Clones stably expressing human LPA1 were selected using hygromycin and identified as cells that show Ca-influx in response to LPA.
# Human LPA1 or LPA3 expressing CHO cells are seeded at 20,000-45,000 cells per well in a 96-well poly-D-lysine coated plate one or two days before the assay. Prior to the assay, the cells are washed once with PBS and then cultured in serum-free media overnight. On the day of the assay, a calcium indicator dye (Calcium 4, Molecular Devices) in assay buffer (HBSS with Ca^2+ and Mg^2+ and containing 20 mM Hepes and 0.3% fatty-acid free human serum albumin) is added to each well and incubation continued for 1 hour at 37° C. 10 μl of test compounds in 2.5% DMSO are added to the cells and incubation continued at room temperature for 30 minutes. Cells are the stimulated by the addition of 10 nM LPA and intracellular Ca^2+ measured using the FLEXSTATION® 3 (Molecular Devices). IC50s are determined using Graphpad prism analysis of drug titration curves.
# [10] = system: mouse bleomycin lung fibrosis model; assay: Bleomycin-induced lung fibrosis model in mice; assay type: in vivo
# Text: Female C57Bl/6 mice (Harlan, 25-30 g) are housed 4 per cage, given free access to food and water and allowed to acclimate for at least 7 days prior to test initiation. After the habituation phase, mice are lightly anesthetized with isoflurane (5% in 100% O2) and administered with bleomycin sulfate (0.01-5 U/kg, Henry Schein) via intratracheal instillation (Cuzzocrea, S et al., Am. J. Physiol. Lung Cell Mol. Physiol., 292(5):L1095-104 (May 2007) (Epub Jan. 12, 2007). Mice are returned to their cages and monitored daily for the duration of the experiment. Test compound or vehicle is delivered po, ip or sc daily. The route and frequency of dosing is based on previously determined pharmacokinetic properties. All animals are sacrificed using inhaled isoflurane 3, 7, 14, 21 or 28 days after bleomycin instillation. Following sacrifice, mice are intubated with a 20 gauge angiocatheter attached to a 1 ml syringe. Lungs are lavaged with saline to obtain bronchoalveolar lavage fluid (BALF) and then removed and fixed in 10% neutral buffered formalin for subsequent histopathological analysis. BALF is centrifuged for 10 min at 800×g to pellet the cells and the cell supernatant removed and frozen at −80° C. for subsequent protein analysis using the DC protein assay kit (Biorad, Hercules, Calif.) and soluble collagen analysis using Sircol (Biocolor Ltd, UK). BALF is analyzed for concentrations of inflammatory, pro-fibrotic and tissue injury biomarkers including transforming growth factor β1, hyaluronic acid, tissue inhibitor of metalloproteinase-1, matrix matelloproteinase-7, connective tissue growth factor and lactate dehydrogenase activity, using commercially available ELISA. The cell pellet is re-suspended in PBS. Total cell counts are then obtained using a HEMAVET® hematology system (Drew Scientific, Wayne, Pa.) and differential cells counts are determined using Shandon cytospin (Thermo Scientific, Waltham, Mass.). Lung tissue is stained using hematoxylin and eosin (H&E) and trichrome and lung fibrosis is determined by semiquantitative histopathological scoring (Ashcroft T. et al., J. Clin. Path., 41(4):467-470 (1988)) using light microscopy (10× magnification) and quantitative, computer-assisted densitometry of collagen in lung tissue sections using light microscopy. The data are plotted using Graphpad prism and statistical differences between groups determined
# [11] = multiple timepoints following intratracheal bleomycin instillation
smiles,measurement,setting,value
C[C@@H](N)[C@H]1CC[C@H](C(=O)Nc2ccncc2)CC1 [Compound Y-27632],allodynia and hyperalgesia,[1],completely abolished
Cc1noc(-c2ccc(CSCCC(=O)O)cc2)c1NC(=O)OC(C)c1ccccc1Cl (centres unmarked) [Ki16425],chemotaxis of human foetal lung fibroblasts induced by BAL from IPF patients,[2],blocked
same,increased fibroblast chemotactic activity in bronchoalveolar lavage samples of human subjects with IPF,[2],inhibited
same,development of renal fibrosis,[3],closely resembled the LPA1 (−/−) mice
same,LPA-induced expression of the profibrotic cytokine CTGF,[4],almost completely suppressed
same,in vitro migration in response to LPA and peritoneal fluid (ascites) from pancreatic cancer patients,[5],effectively blocked
same,LPA-induced and ascites-induced invasion activity,[6],blocked
same,metastasis to bone,[7],inhibit metastasis to bone
CCCCCCCC/C=C\CCCCCCCC(=O)OC[C@@H](COP(O)(O)=S)OC [OMPT],reduction of severity of injury by blockade of the LPA3 receptor,[8],reversed
"CC(OC(=O)Nc1ccncc1-c1ccc(-c2ccc(C3(C(=O)O)CC3)cc2)cc1)c1ccccc1Cl (centres unmarked) [Compound 1-1, 1-(4′-{4-[1-(2-chloro-phenyl)-ethoxycarbonylamino]-pyridin-3-yl}-biphenyl-4-yl)-cyclopropanecarboxylic acid]",IC50,[9],< 300 nM
same,BALF MMP-7,[10]; acute setting (3 day),reduced
same,BALF TGFβ1,[10]; acute setting (3 day),reduced
same,BALF collagen,[10]; acute setting (3 day),reduced
same,BALF hyaluronan,[10]; acute setting (3 day),reduced
same,BALF inflammatory cell influx,[10]; acute setting (3 day),reduced
same,BALF protein,[10]; acute setting (3 day),reduced
same,fibrosis,[10]; [11],reduced
same,inflammation,[10]; [11],reduced
same,lung injury,[10]; [11],reduced
same,vascular leakage,[10]; [11],reduced
